The source made the active and inactive calls. The calls are words filed in the database; no cut-off is given here.
Tests used:
[1] = target: T1, C-X-C chemokine receptor type 4 (Homo sapiens, UniProt P61073); experiment: Inhibition of APC-conjugated anti-human CXCR4 clone 12G5 binding to CXCR4 in human HPBALL cells measured after 3 hrs by FACS analysis; type: cell-based
[2] = Half life in rat liver microsomes at 1 uM peincubated for 10 mins followed by NADPH addition and measured 60 mins by LC-MS/MS analysis; type: ADME, Microsome; settings: time 70 min
[3] = Intrinsic clearance in rat liver microsomes at 1 uM peincubated for 10 mins followed by NADPH addition and measured 60 mins by LC-MS/MS analysis; type: ADME, Microsome; settings: time 70 min, read-out: CLH
[4] = target: T1, C-X-C chemokine receptor type 4; experiment: Antagonist activity at CXCR4 in human CD4-positive T cells assessed as inhibition of CXCL12-induced cytosolic calcium flux preincubated for 20 mins followed by CXCL12 addition by calcium 4 dye based FLIPR TETRA analysis; type: functional, cell-based, T cell
[5] = Protein binding in mouse plasma at 1 uM; type: ADME, cell-free; settings: read-out: PPB (converted)
CYP3A4 [6] = target: T2, CYP3A4 (Homo sapiens, UniProt P08684); experiment: Inhibition of CYP3A4 in human liver microsomes at 10 uM using testosterone as substrate preincubated for 10 mins followed by NADPH addition measured after 10 mins by LC-MS/MS analysis relative to control; type: ADME; settings: probe testosterone, time 20 min
T2 sequence (P08684 whole entry): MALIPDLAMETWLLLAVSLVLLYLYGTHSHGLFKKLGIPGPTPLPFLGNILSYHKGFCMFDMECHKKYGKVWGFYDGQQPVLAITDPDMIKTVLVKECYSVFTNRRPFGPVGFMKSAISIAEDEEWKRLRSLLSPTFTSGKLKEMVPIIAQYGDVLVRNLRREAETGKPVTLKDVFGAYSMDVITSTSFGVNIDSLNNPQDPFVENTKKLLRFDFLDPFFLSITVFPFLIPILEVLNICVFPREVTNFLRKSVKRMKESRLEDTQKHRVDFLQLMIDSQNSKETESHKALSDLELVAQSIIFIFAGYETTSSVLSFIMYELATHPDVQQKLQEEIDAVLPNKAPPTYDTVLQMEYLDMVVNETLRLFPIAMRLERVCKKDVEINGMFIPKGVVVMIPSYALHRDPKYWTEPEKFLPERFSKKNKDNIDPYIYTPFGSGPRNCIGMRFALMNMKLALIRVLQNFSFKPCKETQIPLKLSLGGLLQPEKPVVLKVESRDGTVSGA

[7] = Protein binding in human plasma at 1 uM; type: ADME, cell-free; settings: read-out: PPB (converted)
CYP2C9 = CYP2C9 (Homo sapiens, UniProt P11712); experiment: Inhibition of CYP2C9 in human liver microsomes at 10 uM using tolbutamide as substrate preincubated for 10 mins followed by NADPH addition measured after 10 mins by LC-MS/MS analysis relative to control; type: ADME; settings: probe tolbutamide
Sequence of CYP2C9 (P11712 whole entry): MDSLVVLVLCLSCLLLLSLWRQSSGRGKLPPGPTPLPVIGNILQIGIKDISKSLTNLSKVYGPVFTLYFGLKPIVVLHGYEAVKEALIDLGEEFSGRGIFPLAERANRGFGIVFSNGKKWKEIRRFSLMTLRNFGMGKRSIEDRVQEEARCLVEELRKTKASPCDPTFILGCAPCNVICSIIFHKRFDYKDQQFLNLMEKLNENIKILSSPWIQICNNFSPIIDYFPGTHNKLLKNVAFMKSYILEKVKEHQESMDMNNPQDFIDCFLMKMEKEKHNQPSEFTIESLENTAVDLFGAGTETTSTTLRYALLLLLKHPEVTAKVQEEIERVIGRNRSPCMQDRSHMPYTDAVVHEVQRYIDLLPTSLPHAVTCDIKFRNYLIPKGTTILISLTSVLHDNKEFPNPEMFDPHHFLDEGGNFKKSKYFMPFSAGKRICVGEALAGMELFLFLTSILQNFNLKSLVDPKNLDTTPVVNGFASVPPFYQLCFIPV

[8] = target: Voltage-gated inwardly rectifying potassium channel KCNH2 (Homo sapiens, UniProt Q12809); experiment: Inhibition of human ERG stably expressed in CHO cells at -80 mV holding potential measured after 4 mins by Qpatch electrophysiological assay; type: cell-based
Sequence of Voltage-gated inwardly rectifying potassium channel KCNH2 (Q12809 whole entry): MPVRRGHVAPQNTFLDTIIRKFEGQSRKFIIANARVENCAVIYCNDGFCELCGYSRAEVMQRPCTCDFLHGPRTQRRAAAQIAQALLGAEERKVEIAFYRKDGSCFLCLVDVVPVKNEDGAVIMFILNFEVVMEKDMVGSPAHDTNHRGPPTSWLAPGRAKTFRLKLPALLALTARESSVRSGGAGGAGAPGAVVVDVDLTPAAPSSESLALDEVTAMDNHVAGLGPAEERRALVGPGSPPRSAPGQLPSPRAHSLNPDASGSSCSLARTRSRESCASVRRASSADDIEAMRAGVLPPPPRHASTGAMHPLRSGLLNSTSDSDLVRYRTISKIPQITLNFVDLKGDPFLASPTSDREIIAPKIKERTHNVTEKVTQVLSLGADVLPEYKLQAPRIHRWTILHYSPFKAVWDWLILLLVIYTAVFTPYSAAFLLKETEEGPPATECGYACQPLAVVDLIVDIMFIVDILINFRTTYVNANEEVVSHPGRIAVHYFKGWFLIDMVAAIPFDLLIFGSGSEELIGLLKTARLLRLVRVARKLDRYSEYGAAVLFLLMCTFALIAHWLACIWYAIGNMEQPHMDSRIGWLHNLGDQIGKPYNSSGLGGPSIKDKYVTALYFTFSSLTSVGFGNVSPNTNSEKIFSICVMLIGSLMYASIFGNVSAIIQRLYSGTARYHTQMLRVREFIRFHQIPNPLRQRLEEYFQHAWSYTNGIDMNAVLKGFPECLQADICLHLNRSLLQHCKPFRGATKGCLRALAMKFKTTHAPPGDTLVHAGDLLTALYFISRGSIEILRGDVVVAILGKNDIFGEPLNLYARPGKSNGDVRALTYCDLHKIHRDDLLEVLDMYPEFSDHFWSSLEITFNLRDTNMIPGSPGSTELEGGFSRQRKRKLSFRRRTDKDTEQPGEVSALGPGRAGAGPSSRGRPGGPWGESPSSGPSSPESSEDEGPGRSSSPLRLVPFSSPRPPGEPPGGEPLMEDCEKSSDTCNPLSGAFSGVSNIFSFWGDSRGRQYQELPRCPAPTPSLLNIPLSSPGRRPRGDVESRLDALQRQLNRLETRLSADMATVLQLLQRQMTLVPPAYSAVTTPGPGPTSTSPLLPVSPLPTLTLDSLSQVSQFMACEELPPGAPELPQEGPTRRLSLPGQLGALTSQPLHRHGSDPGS

CYP2C19 = CYP2C19 (Homo sapiens, UniProt P33261); experiment: Inhibition of CYP2C19 in human liver microsomes at 10 uM using S-mephenytoin as substrate preincubated for 10 mins followed by NADPH addition measured after 10 mins by LC-MS/MS analysis relative to control; type: ADME; settings: probe S-mephenytoin, time 20 min
Sequence of CYP2C19 (P33261 whole entry): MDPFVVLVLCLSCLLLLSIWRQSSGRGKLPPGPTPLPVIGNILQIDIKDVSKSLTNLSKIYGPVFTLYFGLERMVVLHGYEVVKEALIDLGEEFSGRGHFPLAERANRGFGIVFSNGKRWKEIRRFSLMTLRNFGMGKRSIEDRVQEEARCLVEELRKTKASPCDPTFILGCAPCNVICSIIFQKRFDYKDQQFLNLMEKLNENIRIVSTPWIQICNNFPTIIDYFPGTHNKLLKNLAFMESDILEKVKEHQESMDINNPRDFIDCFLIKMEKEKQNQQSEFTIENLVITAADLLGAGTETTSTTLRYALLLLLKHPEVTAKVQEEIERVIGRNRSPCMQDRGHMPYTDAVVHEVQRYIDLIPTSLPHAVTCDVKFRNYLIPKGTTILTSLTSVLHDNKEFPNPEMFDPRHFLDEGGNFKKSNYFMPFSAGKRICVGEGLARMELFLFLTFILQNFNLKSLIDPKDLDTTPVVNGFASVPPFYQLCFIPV

L929 = experiment: Cytotoxicity against mouse L929 cells assessed as reduction in cell proliferation up to 1000 nM by ATP-based celltiter-glo luminescent assay
[9] = target: T1, C-X-C chemokine receptor type 4; experiment: Antagonist activity at CXCR4 in human MDA-MB-231 cells assessed as inhibition of CXCL12-induced cell migration at 100 nM measured after 24 hrs by crystal violet staining based matrigel invasion assay; settings: filed as antagonist
MDA-MB-231 = experiment: Cytotoxicity against human MDA-MB-231 cells assessed as reduction in cell proliferation up to 1000 nM by ATP-based celltiter-glo luminescent assay
[10] = Intrinsic clearance in human liver microsomes at 1 uM peincubated for 10 mins followed by NADPH addition and measured 60 mins by LC-MS/MS analysis; type: ADME, Microsome; settings: time 70 min, read-out: CLH
[11] = target: T3, C-X-C chemokine receptor type 1 (Homo sapiens) (UniProt P25024); experiment: Antagonist activity at CXCR1 (unknown origin) expressed in HEK293 cells assessed as suppression of IL-8-induced inhibition of forskolin-induced cAMP formation up to 10 uM preincubated for 15 mins followed by forskolin and IL-8 stimulation and measured after 15 mins by cAMP-d2 and Eu-Anti-cAMP based fluorescence assay; type: functional, cell-based; settings: dose microM <=10, time 30.0 min
T3 sequence (whole entry): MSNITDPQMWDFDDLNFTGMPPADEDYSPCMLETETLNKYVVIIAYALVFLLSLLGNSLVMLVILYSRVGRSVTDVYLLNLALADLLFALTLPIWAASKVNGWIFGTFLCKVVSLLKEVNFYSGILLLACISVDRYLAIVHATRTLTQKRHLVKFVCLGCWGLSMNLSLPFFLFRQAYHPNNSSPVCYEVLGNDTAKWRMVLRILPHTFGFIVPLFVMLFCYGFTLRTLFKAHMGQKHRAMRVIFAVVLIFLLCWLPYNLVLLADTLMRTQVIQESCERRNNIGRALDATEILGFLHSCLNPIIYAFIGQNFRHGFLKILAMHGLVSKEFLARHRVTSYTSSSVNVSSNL

CYP1A2 = target: T4, CYP1A2 (Homo sapiens, UniProt P05177); experiment: Inhibition of CYP1A2 in human liver microsomes at 10 uM using phenacetin as substrate preincubated for 10 mins followed by NADPH addition measured after 10 mins by LC-MS/MS analysis relative to control; type: ADME; settings: probe phenacetin, time 20 min
T4 sequence (P05177 whole entry): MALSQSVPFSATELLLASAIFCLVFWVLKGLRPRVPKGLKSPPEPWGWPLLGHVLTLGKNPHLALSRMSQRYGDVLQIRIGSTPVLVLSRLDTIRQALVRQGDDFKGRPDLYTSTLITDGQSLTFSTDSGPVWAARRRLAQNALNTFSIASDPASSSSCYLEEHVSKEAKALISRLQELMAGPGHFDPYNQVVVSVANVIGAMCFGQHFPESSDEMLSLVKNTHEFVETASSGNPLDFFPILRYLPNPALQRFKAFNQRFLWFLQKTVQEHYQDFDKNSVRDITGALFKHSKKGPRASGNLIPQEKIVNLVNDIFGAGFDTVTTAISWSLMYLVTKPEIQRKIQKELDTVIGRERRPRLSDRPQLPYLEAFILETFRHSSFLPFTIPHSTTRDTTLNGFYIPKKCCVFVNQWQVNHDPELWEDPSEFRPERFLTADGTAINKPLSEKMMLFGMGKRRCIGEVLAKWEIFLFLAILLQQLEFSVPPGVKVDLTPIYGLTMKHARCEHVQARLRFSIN

MEF = experiment: Cytotoxicity against MEF cells assessed as reduction in cell proliferation up to 1000 nM by ATP-based celltiter-glo luminescent assay; settings: mouse
[12] = target: T5, C-C chemokine receptor type 6 (Homo sapiens) (UniProt P51684); experiment: Antagonist activity at CCR6 in human CD4-positive T cells assessed as inhibition of CCL20-induced cytosolic calcium flux up to 10 uM by calcium 4 dye based FLIPR TETRA analysis; type: functional; settings: T cell, dose microM <=10
T5 sequence (whole entry): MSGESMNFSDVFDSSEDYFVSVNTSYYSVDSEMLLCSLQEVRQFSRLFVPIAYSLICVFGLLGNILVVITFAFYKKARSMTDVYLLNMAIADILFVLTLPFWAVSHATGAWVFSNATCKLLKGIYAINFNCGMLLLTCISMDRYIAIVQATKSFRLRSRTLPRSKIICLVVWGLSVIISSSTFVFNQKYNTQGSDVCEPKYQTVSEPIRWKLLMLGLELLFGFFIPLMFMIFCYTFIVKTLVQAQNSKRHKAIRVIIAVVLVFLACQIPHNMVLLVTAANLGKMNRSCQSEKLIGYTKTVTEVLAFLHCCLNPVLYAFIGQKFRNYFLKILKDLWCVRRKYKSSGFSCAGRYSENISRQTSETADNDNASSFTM

CYP2D6 = CYP2D6 (Homo sapiens, UniProt P10635); experiment: Inhibition of CYP2D6 in human liver microsomes at 10 uM using dextromethorphan as substrate preincubated for 10 mins followed by NADPH addition measured after 10 mins by LC-MS/MS analysis relative to control; type: ADME; settings: probe dextromethorphan, time 20 min
Sequence of CYP2D6 (P10635 whole entry): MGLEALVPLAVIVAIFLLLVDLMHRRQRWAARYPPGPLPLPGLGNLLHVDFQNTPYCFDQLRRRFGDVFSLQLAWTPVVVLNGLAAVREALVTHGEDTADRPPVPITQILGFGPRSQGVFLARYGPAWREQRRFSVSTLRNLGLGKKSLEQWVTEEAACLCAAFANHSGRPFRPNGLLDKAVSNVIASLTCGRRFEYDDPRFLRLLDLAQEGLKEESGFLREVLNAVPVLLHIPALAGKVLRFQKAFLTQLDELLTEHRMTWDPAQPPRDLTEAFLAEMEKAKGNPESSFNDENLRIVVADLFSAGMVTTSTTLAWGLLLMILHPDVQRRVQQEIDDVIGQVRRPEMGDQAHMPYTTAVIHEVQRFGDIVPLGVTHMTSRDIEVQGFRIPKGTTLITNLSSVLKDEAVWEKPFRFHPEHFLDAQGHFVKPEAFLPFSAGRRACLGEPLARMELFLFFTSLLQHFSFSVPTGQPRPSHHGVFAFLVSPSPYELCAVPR

[13] = Dissociation constant, basic pKa of compound by titration method; type: physicochemical
CYP3A4 [14] = target: T2, CYP3A4; experiment: Inhibition of CYP3A4 in human liver microsomes at 10 uM using midazolam as substrate preincubated for 10 mins followed by NADPH addition measured after 10 mins by LC-MS/MS analysis relative to control; type: ADME; settings: probe midazolam, time 20 min
[15] = Cytotoxicity against […] Hepa1-6 cells assessed as reduction in cell proliferation up to 1000 nM by ATP-based celltiter-glo luminescent assay
[16] = 1-Octanol/water partition coefficient, log P of compound at pH 7.4 measured after 24 hrs by shake flask method; type: physicochemical
Lewis lung carcinoma = experiment: Antimetastatic activity against RFP-labelled LL2 cells allografted in C57BL6 mouse assessed as reduction in metastatic lung nodules at 70 mg/kg, ip treated 30 mins prior to tumor implantation followed by redosing at 3 hrs post tumor implantation and subsequent daily dosing for 18 days by fluorescence assay; type: functional, organism-based; settings: time 18.0 day
[17] = Half life in human liver microsomes at 1 uM peincubated for 10 mins followed by NADPH addition and measured 60 mins by LC-MS/MS analysis; type: ADME, Microsome; settings: time 70 min
[18] = Protein binding in rat plasma at 1 uM; type: ADME, cell-free; settings: read-out: PPB (converted)

T1 sequence (P61073 whole entry): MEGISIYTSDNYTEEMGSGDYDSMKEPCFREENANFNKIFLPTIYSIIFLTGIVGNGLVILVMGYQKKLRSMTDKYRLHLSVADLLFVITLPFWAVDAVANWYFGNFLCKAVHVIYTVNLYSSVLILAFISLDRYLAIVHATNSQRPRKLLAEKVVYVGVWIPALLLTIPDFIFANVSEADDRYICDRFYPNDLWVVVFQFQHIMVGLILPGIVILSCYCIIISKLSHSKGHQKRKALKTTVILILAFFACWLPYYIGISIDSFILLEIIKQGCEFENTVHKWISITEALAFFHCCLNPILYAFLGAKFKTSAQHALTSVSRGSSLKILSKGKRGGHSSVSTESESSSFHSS

Cc1ccnc([C@@H]2CCCN2Cc2cc(N3CCN(C)CC3)nc(C)n2)c1
IC50 [1]: 216 nM

CN1CCN(c2cc(CN(C)C3CCCc4cccnc43)nc(N)n2)CC1 (stereo unspecified)
half-life at 1 µM [2]: 3.24 min | CLint scaled at 1 µM [3]: 767 mL/min/kg

Cc1cccc([C@@H]2CCCN2Cc2cc(N3CCN(C)CC3)nc(C)n2)n1
IC50 [1]: 2390 nM

CN1CCN(c2cc(CN(C)C3CCCc4cccnc43)nc(C3CC3)n2)CC1 (stereo unspecified)
half-life at 1 µM [2]: 1.02 min | CLint scaled at 1 µM [3]: 2440 mL/min/kg

Cc1nc(CN2CCC(C)C2c2ccccn2)cc(N2CCN(C)CC2)n1 (stereo unspecified)
IC50 [1]: 1550 nM

Cc1nc(CN2CCC[C@H]2c2ncccc2C)cc(N2CCC(N(C)C)CC2)n1
IC50 [4]: 13 nM

Cc1nc(CN2CCC[C@H]2c2ccccn2)cc(N2CCN(C)CC2)n1
IC50 [1]: 220 nM | IC50 [4]: 2.7 nM

Cc1nc(CN2CCC[C@H]2c2ncccc2C)cc(N2CCCN(C)CC2)n1
IC50 [4]: 0.4 nM

Cc1nc(CN(C)[C@H]2CCCc3cccnc32)cc(N2CCN(C)[C@@H](C)C2)n1
half-life at 1 µM [2]: 1.6 min | CLint scaled at 1 µM [3]: 1550 mL/min/kg

Cc1nc(CN2CCCCC2c2ccccn2)cc(N2CCN(C)CC2)n1 (stereo unspecified)
IC50 [1]: 620 nM

Cc1nc(CN(C)[C@H]2CCCc3cccnc32)cc(N2CCN3CCC[C@H]3C2)n1
half-life at 1 µM [2]: < 1 min | CLint scaled at 1 µM [3]: > 497 mL/min/kg

Cc1nc(CN(C)[C@H]2CCCc3cccnc32)cc(N2C[C@@H](C)N(C)[C@@H](C)C2)n1
half-life at 1 µM [2]: < 1 min | CLint scaled at 1 µM [3]: > 497 mL/min/kg

Cc1nc(CN2CCCC2c2ccccn2)cc(N2CCN(C)CC2)n1 (stereo unspecified)
IC50 [1]: 319 nM

Cc1nc(CN2CCC[C@H]2c2ncccc2C)cc(N2CCN(C)CC2)n1
fraction unbound at 1 µM [5]: 0.67 | inhibition at 10 min, 10 µM (CYP3A4 [6]): -4% | fraction unbound at 1 µM [7]: 0.05 | inhibition at 10 min, 10 µM (CYP2C9): 1% | IC50 [8]: > 30000 nM | inhibition at 10 min, 10 µM (CYP2C19): 11% | half-life at 1 µM [2]: 20.2 min | Activity (L929): Non-Toxic | CLint scaled at 1 µM [3]: 123 mL/min/kg | inhibition [9]: Active | Activity (MDA-MB-231): Non-Toxic | CLint scaled at 1 µM [10]: 66 mL/min/kg | inhibition [11]: inactive | IC50 [1]: 79 nM | inhibition at 10 min, 10 µM (CYP1A2): -6% | Activity (MEF): Non-Toxic | inhibition [12]: inactive | inhibition at 10 min, 10 µM (CYP2D6): -5% | IC50 [4]: 0.25 nM | pKa [13]: 8.2 | inhibition at 10 min, 10 µM (CYP3A4 [14]): 7% | Activity [15]: Non-Toxic | logD at 24 h [16]: 1.12 | Activity (Lewis lung carcinoma): Active | half-life at 1 µM [17]: 26.2 min | fraction unbound at 1 µM [18]: 0.56

c1cc(CN2CCCNCCNCCCNCC2)ccc1CN1CCCNCCNCCCNCC1
inhibition [9]: Active

Cc1nc(CN(C)C2CCCc3cccnc32)c(C#N)c(N2CCN(C)CC2)n1 (stereo unspecified)
half-life at 1 µM [2]: 1.51 min | CLint scaled at 1 µM [3]: 1640 mL/min/kg

Cc1nc(CN(C)[C@H]2CCCc3cccnc32)cc(N2CCN(C)CC2)n1
half-life at 1 µM [2]: 1.59 min | CLint scaled at 1 µM [3]: 1570 mL/min/kg

Cc1ccc([C@@H]2CCCN2Cc2cc(N3CCN(C)CC3)nc(C)n2)nc1
IC50 [4]: 4.9 nM

Cc1nc(CN2CCC[C@@H]2c2ccccn2)cc(N2CCN(C)CC2)n1
IC50 [1]: > 10000 nM

CCN(Cc1cc(N2CCN(C)CC2)nc(C)n1)C1CCCc2cccnc21 (stereo unspecified)
half-life at 1 µM [2]: 1.95 min | CLint scaled at 1 µM [3]: 1280 mL/min/kg

COc1nc(CN(C)C2CCCc3cccnc32)cc(N2CCN(C)CC2)n1 (stereo unspecified)
half-life at 1 µM [2]: 2.2 min | CLint scaled at 1 µM [3]: 1130 mL/min/kg

CCN1CCN(c2cc(CN(C)[C@H]3CCCc4cccnc43)nc(C)n2)CC1
half-life at 1 µM [2]: 1.14 min | CLint scaled at 1 µM [3]: 2180 mL/min/kg

Cc1nc(CN(C)[C@H]2CCCc3cccnc32)cc(N2CCN(C)[C@H](C)C2)n1
half-life at 1 µM [2]: < 1 min | CLint scaled at 1 µM [3]: > 497 mL/min/kg

CCc1nc(CN(C)C2CCCc3cccnc32)cc(N2CCN(C)CC2)n1 (stereo unspecified)
half-life at 1 µM [2]: 1.19 min | CLint scaled at 1 µM [3]: 2090 mL/min/kg

Cc1nc(CN(C)C2CCCc3cccnc32)c(F)c(N2CCN(C)CC2)n1 (stereo unspecified)
half-life at 1 µM [2]: 2.31 min | CLint scaled at 1 µM [3]: 1080 mL/min/kg

CN1CCN(c2cccc3nc(CN(C)[C@H]4CCCc5cccnc54)c(CO)n23)CC1
half-life at 1 µM [2]: 3.82 min | CLint scaled at 1 µM [3]: 651 mL/min/kg

— ChEMBL document CHEMBL4765416, “Design, synthesis, and evaluation of pyrrolidine based CXCR4 antagonists with in vivo anti-tumor metastatic activity” (Eur J Med Chem, 2020)
